Patent US20230211004A1, “TETANUS TOXOID AND CRM-BASED PEPTIDES AND METHODS OF USE” (UNIVERSITY OF GEORGIA RESEARCH FOUNDATION, INC., priority 2019, published 2023)
“Also recorded” adds a separate entry of the source.

What was measured:
CD4+ T cells = format: cell-based, human
[1] = system: IFN-γ production by CD4+ T cell enriched donor PBMCs; format: cell-based, human
[2] = system: MHCII molecules (HLA-DR, HLA-DP, HLA-DQ) of Raji B cells; format: binding, human

| Sequence | Donor 1 CFSE (CD4+ T cells) | Donor 2 CFSE (CD4+ T cells) | Donor 4 CFSE (CD4+ T cells) | number of donors with positive T cell proliferative response (CD4+ T cells) | Donor 2 IFN-γ [1] | IFN-γ production [1] | CD4+ T cell proliferation compared to basal growth rate (CD4+ T cells) | Donor 3 CFSE (CD4+ T cells) | T cell response against previously published TT epitopes (CD4+ T cells) | Donor 4 IGN-γ [1] | Donor 3 IFN-γ [1] | number of donors with significant levels of IFN-γ [1] | Observed in Isotypes [2] | donors that gave positive / significant T cell response (CD4+ T cells) | Donor 1 IFN-γ [1] |
| --- | --- | --- | --- | --- | --- | --- | --- | --- | --- | --- | --- | --- | --- | --- | --- |
| DRILRVGYNAPGIPL (TT-derived peptide) [TT1222-1236] | * (key: * p < 0.05; ** p < 0.005; *** p < 0.0005) | *** (key: * p < 0.05; ** p < 0.005; *** p < 0.0005) | * (key: * p < 0.05; ** p < 0.005; *** p < 0.0005) | three | *** (key: * p < 0.05; ** p < 0.005; *** p < 0.0005) | significant production of IFN-γ |  |  |  |  |  |  |  |  |  |
| QYIKANSKFIGITEL (TT-derived peptide) [Peptide P2, reference compound] |  |  | *** (key: * p < 0.05; ** p < 0.005; *** p < 0.0005) |  |  |  | did not show increased proliferation; also recorded: did not show significant proliferation | * (key: * p < 0.05; ** p < 0.005; *** p < 0.0005) | no significant response | * (key: * p < 0.05; ** p < 0.005; *** p < 0.0005) |  |  |  |  |  |
| KFIIKRYTPNNEIDSF (TT-derived peptide) [Peptide P32, reference compound] |  | *** (key: * p < 0.05; ** p < 0.005; *** p < 0.0005) | *** (key: * p < 0.05; ** p < 0.005; *** p < 0.0005) |  | ** (key: * p < 0.05; ** p < 0.005; *** p < 0.0005) |  |  | ** (key: * p < 0.05; ** p < 0.005; *** p < 0.0005) | no significant response | * (key: * p < 0.05; ** p < 0.005; *** p < 0.0005) | ** (key: * p < 0.05; ** p < 0.005; *** p < 0.0005) |  |  |  |  |
| LFNRIKNNVAGEAL (TT-derived peptide) [TT94-107] |  | *** (key: * p < 0.05; ** p < 0.005; *** p < 0.0005) | ** (key: * p < 0.05; ** p < 0.005; *** p < 0.0005) | three | ** (key: * p < 0.05; ** p < 0.005; *** p < 0.0005) | significant production of IFN-γ | increased proliferation | *** (key: * p < 0.05; ** p < 0.005; *** p < 0.0005) |  | * (key: * p < 0.05; ** p < 0.005; *** p < 0.0005) | ** (key: * p < 0.05; ** p < 0.005; *** p < 0.0005) | at least three |  |  |  |
| TPLPIAGVLLPTIPGK (CRM-derived peptide) [CRM425-440] |  | *** (key: * p < 0.05; ** p < 0.005; *** p < 0.0005) | *** (key: * p < 0.05; ** p < 0.005; *** p < 0.0005) | three | ** (key: * p < 0.05; ** p < 0.005; *** p < 0.0005) | significant production of IFN-γ | increased proliferation | ** (key: * p < 0.05; ** p < 0.005; *** p < 0.0005) |  | *** (key: * p < 0.05; ** p < 0.005; *** p < 0.0005) | ** (key: * p < 0.05; ** p < 0.005; *** p < 0.0005) | at least three | pulled down in the -DQ IP; also recorded: DR, DQ | Donors 2,3, and 4 |  |
| CKALNPKEIE (TT-derived peptide) [TT1093-1102] |  |  | *** (key: * p < 0.05; ** p < 0.005; *** p < 0.0005) |  | * (key: * p < 0.05; ** p < 0.005; *** p < 0.0005) | significant levels of IFN-γ response; also recorded: significant production of IFN-γ | not significant compared to basal growth rate | ** (key: * p < 0.05; ** p < 0.005; *** p < 0.0005) |  | * (key: * p < 0.05; ** p < 0.005; *** p < 0.0005) | ** (key: * p < 0.05; ** p < 0.005; *** p < 0.0005) | at least three | pulled down in the -DQ IP; also recorded: DR, DQ | Donors 3 and 4 | * (key: * p < 0.05; ** p < 0.005; *** p < 0.0005) |
| GLTKVLALKVD (CRM-derived peptide) [CRM87-97] |  |  | *** (key: * p < 0.05; ** p < 0.005; *** p < 0.0005) |  | ** (key: * p < 0.05; ** p < 0.005; *** p < 0.0005) | significant levels of IFN-γ response; also recorded: significant production of IFN-γ | not significant compared to basal growth rate | ** (key: * p < 0.05; ** p < 0.005; *** p < 0.0005) |  | ** (key: * p < 0.05; ** p < 0.005; *** p < 0.0005) | *** (key: * p < 0.05; ** p < 0.005; *** p < 0.0005) | at least three |  | Donors 3 and 4 | * (key: * p < 0.05; ** p < 0.005; *** p < 0.0005) |
| KTTAALSILPGIGS (CRM-derived peptide) [CRM299-312] | *** (key: * p < 0.05; ** p < 0.005; *** p < 0.0005) | *** (key: * p < 0.05; ** p < 0.005; *** p < 0.0005) | *** (key: * p < 0.05; ** p < 0.005; *** p < 0.0005) | four | ** (key: * p < 0.05; ** p < 0.005; *** p < 0.0005) | significant levels of IFN-γ response; also recorded: significant production of IFN-γ | increased proliferation | ** (key: * p < 0.05; ** p < 0.005; *** p < 0.0005) |  | ** (key: * p < 0.05; ** p < 0.005; *** p < 0.0005) | * (key: * p < 0.05; ** p < 0.005; *** p < 0.0005) | at least three | pulled down in the HLA-DP specific immunoprecipitation; also recorded: pulled down in the -DQ IP; also recorded: identified through the -DR IP; also recorded: DR, DP, DQ |  | * (key: * p < 0.05; ** p < 0.005; *** p < 0.0005) |
| GYVDSIQKGIQKPK (CRM-derived peptide) [CRM26-39] | * (key: * p < 0.05; ** p < 0.005; *** p < 0.0005) |  | *** (key: * p < 0.05; ** p < 0.005; *** p < 0.0005) | three | ** (key: * p < 0.05; ** p < 0.005; *** p < 0.0005) | significant levels of IFN-γ response; also recorded: significant production of IFN-γ | increased proliferation | * (key: * p < 0.05; ** p < 0.005; *** p < 0.0005) |  | *** (key: * p < 0.05; ** p < 0.005; *** p < 0.0005) | * (key: * p < 0.05; ** p < 0.005; *** p < 0.0005) | at least three |  |  | ** (key: * p < 0.05; ** p < 0.005; *** p < 0.0005) |
| GYNAPGIPLYKK (TT-derived peptide) [TT1228-1239] |  |  | *** (key: * p < 0.05; ** p < 0.005; *** p < 0.0005) |  |  |  |  | ** (key: * p < 0.05; ** p < 0.005; *** p < 0.0005) |  | ** (key: * p < 0.05; ** p < 0.005; *** p < 0.0005) | ** (key: * p < 0.05; ** p < 0.005; *** p < 0.0005) |  |  | Donors 3 and 4 |  |
| LYNGLKFIIKR (TT-derived peptide) [TT1169-1179] | * (key: * p < 0.05; ** p < 0.005; *** p < 0.0005) | *** (key: * p < 0.05; ** p < 0.005; *** p < 0.0005) |  | three | * (key: * p < 0.05; ** p < 0.005; *** p < 0.0005) | significant production of IFN-γ |  | * (key: * p < 0.05; ** p < 0.005; *** p < 0.0005) |  | * (key: * p < 0.05; ** p < 0.005; *** p < 0.0005) | * (key: * p < 0.05; ** p < 0.005; *** p < 0.0005) | at least three |  |  |  |
| NFIGALET (TT-derived peptide) [TT660-667] |  |  | *** (key: * p < 0.05; ** p < 0.005; *** p < 0.0005) |  |  | significant levels of IFN-γ response |  | ** (key: * p < 0.05; ** p < 0.005; *** p < 0.0005) |  | * (key: * p < 0.05; ** p < 0.005; *** p < 0.0005) | * (key: * p < 0.05; ** p < 0.005; *** p < 0.0005) | at least three |  | Donors 3 and 4 | * (key: * p < 0.05; ** p < 0.005; *** p < 0.0005) |
| NILMQYIKANSK (TT-derived peptide) [TT826-837] |  |  |  | one |  |  | no significant response |  |  |  | * (key: * p < 0.05; ** p < 0.005; *** p < 0.0005) |  |  |  |  |
